{
  "source": "patent US20250127759A1",
  "about": "“METHODS AND DOSING REGIMENS COMPRISING A CDK2 INHIBITOR FOR THE TREATMENT OF CANCER” (PFIZER INC., priority 2021, published 2025)",
  "key": {"[1]": {"experiment": "Phase 1/2a study, safety profile", "type": "in vivo", "excerpt": "DLTs will be assessed through Cycle 1 (28-day cycle with Day 29 laboratory assessments). For the purpose of dose escalation, the DLT observation period will be during the first cycle (28 days after the start of study treatment) in each participant. Severity of AEs will be graded according to Common Terminology Criteria for Adverse Events (CTCAE) version 5.0."}, "[2]": {"experiment": "Predicted human pharmacokinetics for starting dose", "protocol": "The selection of the starting dose and regimen was based on the nonclinical toxicology and PK results in accordance with the ICH S9 Guidance. Results from nonclinical toxicity studies indicate the STD10 of PF-07104091 in mouse was 150 mg/kg after BID oral administration. The human equivalent dose for the STD10 in mouse is approximately 729 mg BID (assuming a body weight of 60 kg). Per ICH-S9 guidance, one-tenth of the STD10 can be considered the appropriate starting dose. Given the predicted human t % of approximately 4 hours, the starting dose has been selected to be 75 mg BID. The human AUC0-12 hr of PF-07104091 at the proposed starting oral dose of 75 mg BID is predicted to be ˜6.5% of the observed AUC0-12 hr at the STD10 in mouse (150 mg/kg BID) and ˜80% of the observed AUC0-12 hr at the HNSTD in dog (15 mg/kg BID)."}, "[3]": {"tested_on": "phosphorylation of Rb at Ser807/811", "experiment": "Modulation of pRb Ser807/811 in OVCAR3 cells", "type": "cell-based", "settings": "Homo sapiens, OVCAR-3; enriched G1/S phase CCNE1-amplified OVCAR3 cells; mean; read-out: Modulation of pRB Serine 807/811 IC50", "protocol": "The cellular activity of PF-07104091 was evaluated by measuring phosphorylation of Rb at Ser807/811 following treatment of enriched G1/S phase CCNE1-amplified OVCAR3 ovarian carcinoma cells."}, "T47D": {"tested_on": "T47D", "experiment": "In vivo efficacy, T47D breast cancer model", "design": "species or system mice", "settings": "Day 41, 150 mg/kg BID PO", "protocol": "The T47D model was established by implanting passage 3 tumor fragments into recipient mice. To establish the T47D donor mice, tumor cells (5×10^6 cell/mouse with 50% Cultrex® Basement Membrane Matrix) were subcutaneously implanted in female NSG mice. […] All mice received treatment continuously until Day 41. TGI was assessed on Day 41 post first dose."}, "[4]": {"settings": "75 mg to 500 mg BID, all cohorts, as of data cutoff"}},
  "note": "Marks after values point to notes of the source that are not given here.",
  "data": [
    {"smiles": "COCc1cc(C(=O)Nc2cc([C@H]3CC[C@@H](OC(=O)NC(C)C)C3)[nH]n2)n(C)n1", "note": "[PF-07104091, (1R,3S)-3-[3-({[3-(methoxymethyl)-1-methyl-1H-pyrazol-5-yl]carbonyl}amino)-1H-pyrazol-5-yl]cyclopentyl propan-2-ylcarbamate]", "values": [
      {"measurement": "DLTs related to PF-07104091 (number)", "setting": "[1]; [4]", "result": 15},
      {"measurement": "SAEs related to PF-07104091 (number)", "setting": "[1]; [4]", "result": 21},
      {"measurement": "deaths related to PF-07104091", "setting": "[1]; [4]", "result": "no deaths"},
      {"measurement": "patients with at least one all-causality TEAE", "setting": "[1]; 70 out of 77 patients, across all doses", "result": 90.9, "unit": "%"},
      {"measurement": "Grade 5 all-causality TEAEs (number)", "setting": "[1]; Dyspnoea at the 225 mg BID (Part A) dose", "result": "One"},
      {"measurement": "Grade 3 or higher all-causality TEAE: anaemia", "setting": "[1]; across all doses", "result": 6.5, "unit": "%"},
      {"measurement": "Grade 3 or higher all-causality TEAE: fatigue", "setting": "[1]; across all doses", "result": 10.4, "unit": "%"},
      {"measurement": "Grade 3 or higher all-causality TEAE: hypokalaemia", "setting": "[1]; across all doses", "result": 5.2, "unit": "%"},
      {"measurement": "Grade 3 or higher all-causality TEAE: nausea", "setting": "[1]; across all doses", "result": 7.8, "unit": "%"},
      {"measurement": "Grade 3 or higher all-causality TEAE: neutrophil count decreased", "setting": "[1]; across all doses", "result": 23.4, "unit": "%"},
      {"measurement": "Grade 3 or higher all-causality TEAE: white blood cell count decreased", "setting": "[1]; across all doses", "result": 14.3, "unit": "%"},
      {"measurement": "all-causality TEAEs Grade 3 or higher", "setting": "[1]; across all doses", "result": 49.4, "unit": "%"},
      {"measurement": "all-causality TEAE: anaemia", "setting": "[1]; across all doses, 77 patients", "result": 31.2, "unit": "%"},
      {"measurement": "all-causality TEAE: decreased appetite", "setting": "[1]; across all doses, 77 patients", "result": 20.8, "unit": "%"},
      {"measurement": "all-causality TEAE: diarrhoea", "setting": "[1]; across all doses, 77 patients", "result": 37.7, "unit": "%"},
      {"measurement": "all-causality TEAE: fatigue", "setting": "[1]; across all doses, 77 patients", "result": 41.6, "unit": "%"},
      {"measurement": "all-causality TEAE: nausea", "setting": "[1]; across all doses, 77 patients", "result": 68.8, "unit": "%"},
      {"measurement": "all-causality TEAE: neutrophil count decreased", "setting": "[1]; across all doses, 77 patients", "result": 32.5, "unit": "%"},
      {"measurement": "all-causality TEAE: vomiting", "setting": "[1]; across all doses, 77 patients", "result": 37.7, "unit": "%"},
      {"measurement": "all-causality TEAE: white blood cell count decreased", "setting": "[1]; across all doses, 77 patients", "result": 23.4, "unit": "%"},
      {"measurement": "patients who discontinued study treatment due to AEs", "setting": "[1]; all cohorts, as of data cutoff", "result": 4, "unit": "patients"},
      {"measurement": "Grade 4 all-causality TEAE (number)", "setting": "[1]; neutrophil count decreased 500 mg BID (1A) and 75 mg BID (3/1) (1B), platelet count decreased 150 mg BID (1B), neutropenia 75 mg BID (1C)", "result": "Four"},
      {"measurement": "predicted human AUC0-12 hr as % of observed AUC0-12 hr at the HNSTD in dog", "setting": "[2]; human 75 mg BID oral vs dog 15 mg/kg BID", "result": "~80", "unit": "%"},
      {"measurement": "predicted human AUC0-12 hr as % of observed AUC0-12 hr at the STD10 in mouse", "setting": "[2]; human 75 mg BID oral vs mouse 150 mg/kg BID", "result": "~6.5", "unit": "%"},
      {"measurement": "predicted human t %", "setting": "[2]; human, predicted", "result": "approximately 4 hours"},
      {"measurement": "IC50", "setting": "[3]", "result": 144, "unit": "nM"},
      {"measurement": "TGI %", "setting": "T47D", "result": "82* %"}
    ]}
  ]
}
